What was measured:
[1] = target: T1, Dihydrofolate reductase (Pneumocystis carinii, UniProt P16184)
T1 sequence (P16184 whole entry): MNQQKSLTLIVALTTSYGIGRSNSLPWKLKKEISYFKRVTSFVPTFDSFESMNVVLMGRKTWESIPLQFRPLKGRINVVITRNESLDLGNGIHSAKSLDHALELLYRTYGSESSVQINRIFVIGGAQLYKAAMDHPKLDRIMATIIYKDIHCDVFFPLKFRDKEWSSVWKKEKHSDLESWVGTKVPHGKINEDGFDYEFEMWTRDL
Description: Inhibition of dihydrofolate reductase (DHFR) from Pneumocystis carinii.

[2] = Selectivity index as the ratio of Ki value towards Human DHFR to that of Pneumocystis carinii DHFR.
[3] = Partition coefficient (logP); type: physicochemical; settings: octanol/water
[4] = target: T2, Dihydrofolate reductase (Homo sapiens, UniProt P00374); assay: Inhibition of human dihydrofolate reductase (DHFR); settings: read-out: Log 1/Ki (converted)
T2 sequence (P00374 whole entry): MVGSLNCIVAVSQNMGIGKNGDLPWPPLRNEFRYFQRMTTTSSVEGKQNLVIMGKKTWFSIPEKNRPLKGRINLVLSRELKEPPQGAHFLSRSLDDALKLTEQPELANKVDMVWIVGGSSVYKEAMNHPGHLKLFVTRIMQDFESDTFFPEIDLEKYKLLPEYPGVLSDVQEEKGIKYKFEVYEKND

With `CC1(C)N=C(N)N=C(N)N1c1ccc(O)cc1` the Ki [1] was 2.51 µM.

With `CCOc1cc(Cc2cnc(N)nc2N)cc(OCC)c1-n1cccc1` [EPIROPRIM] the Selectivity index [2] was 0.53 and the Ki [1] was 0.0174 µM.

With `COc1cccc(OCc2cccc(N3C(N)=NC(N)=NC3(C)C)c2)c1` the Ki [1] was 0.00776 µM.

Work on `CC(C)(C)c1cccc(N2C(N)=NC(N)=NC2(C)C)c1` yielded a Ki [1] of 0.214 µM.

Molecule `CCCCCCCCc1ccc(N2C(N)=NC(N)=NC2(C)C)cc1` has a Ki [1] of 0.00631 µM.

For `CCCCCCc1ccc(N2C(N)=NC(N)=NC2(C)C)cc1`, the Ki [1] was 0.00794 µM.

`CSc1ccc(N2C(N)=NC(N)=NC2(C)C)cc1` showed a Ki [1] of 0.251 µM.

Work on `CCCCCCCCCCCCCCOc1cccc(N2C(N)=NC(N)=NC2(C)C)c1` yielded a Ki [1] of 0.331 µM.

With `CCCCCCCCCCCOc1cccc(N2C(N)=NC(N)=NC2(C)C)c1` the Ki [1] was 0.0186 µM.

`CC(C)c1cccc(OCc2cccc(N3C(N)=NC(N)=NC3(C)C)c2)c1` showed a Ki [1] of 0.00479 µM.

With `CC1(C)N=C(N)N=C(N)N1c1cccc(OCCCCOc2ccccc2)c1` the Ki [1] was 0.038 µM.

Work on `CC1(C)N=C(N)N=C(N)N1c1ccc(CCCCc2ccc(S(=O)(=O)F)cc2Cl)c(Cl)c1` yielded a logP [3] of 2.42.

For `CCOc1cccc(N2C(N)=NC(N)=NC2(C)C)c1`, the Ki [1] was 6.31 µM.

Molecule `CC1(C)N=C(N)N=C(N)N1c1cccc(CNc2cc(C(N)=O)cc(C(N)=O)c2)c1` has a Ki [1] of 0.0151 µM.

For `CC1(C)N=C(N)N=C(N)N1c1cccc(C(O)c2ccccc2)c1` (stereo not drawn), the Ki [1] was 1.17 µM.

For `CC1(C)N=C(N)N=C(N)N1c1cccc(SCc2ccccc2)c1`, the Ki [4] was 0.0427 µM, the Selectivity index [2] was 1.18 and the Ki [1] was 0.00282 µM.

`CC1(C)N=C(N)N=C(N)N1c1cccc(COc2cccc(C#N)c2)c1` showed a Ki [1] of 0.00832 µM.

With `CCOC(=O)c1cccc(N2C(N)=NC(N)=NC2(C)C)c1` the Ki [1] was 2.34 µM.

With `CC1(C)N=C(N)N=C(N)N1c1cccc(COc2cccc(CO)c2)c1` the Ki [1] was 0.0251 µM.

With `CC1(C)N=C(N)N=C(N)N1c1cccc(COc2cccc(NC(N)=O)c2)c1` the Ki [1] was 0.00457 µM.

Work on `CC1(C)N=C(N)N=C(N)N1c1cccc(OCc2ccccc2)c1` yielded a Ki [1] of 0.0646 µM.

Work on `CC1(C)N=C(N)N=C(N)N1c1cccc(OCC23CC4CC(CC(C4)C2)C3)c1` yielded a Selectivity index [2] of 1.66 and a Ki [1] of 0.017 µM.

In the case of `Cc1cccc(OCc2cccc(N3C(N)=NC(N)=NC3(C)C)c2)c1`, the Ki [1] is reported as 0.0195 µM.

`CC1(C)N=C(N)N=C(N)N1c1cccc([N+](=O)[O-])c1` gave a Ki [1] of 0.132 µM.

With `CCCCCc1ccc(OCc2cccc(N3C(N)=NC(N)=NC3(C)C)c2)cc1` the Ki [1] was 0.017 µM.

With `CCc1cccc(OCc2cccc(N3C(N)=NC(N)=NC3(C)C)c2)c1` the Ki [1] was 0.00417 µM.

Molecule `Cc1ccc(N2C(N)=NC(N)=NC2(C)C)cc1` has a Ki [1] of 0.166 µM.

`CC1(C)N=C(N)N=C(N)N1c1cccc(COc2cccc(Cl)c2)c1` gave a Ki [1] of 0.012 µM.

With `CN(C)C(=O)c1cccc(COc2ccc(N3C(N)=NC(N)=NC3(C)C)cc2Cl)c1` the logP [3] was -1.84.

With `CC1(C)N=C(N)N=C(N)N1c1cccc(OCCOc2cccc(C(F)(F)F)c2)c1` the Ki [1] was 0.0224 µM.

Molecule `CCCCCCOc1ccc(N2C(N)=NC(N)=NC2(C)C)cc1` has a Ki [1] of 0.1 µM.

In the case of `CCCCCCOc1cccc(N2C(N)=NC(N)=NC2(C)C)c1`, the Ki [1] is reported as 0.0214 µM.

Work on `CCCCCOc1ccc(N2C(N)=NC(N)=NC2(C)C)cc1` yielded a Ki [1] of 0.257 µM.

In the case of `CC1(C)N=C(N)N=C(N)N1c1ccc(C(F)(F)F)cc1`, the Ki [1] is reported as 0.132 µM.

With `CCCCCCCCCOc1cccc(N2C(N)=NC(N)=NC2(C)C)c1` the Ki [1] was 0.00676 µM.

Molecule `CC1(C)N=C(N)N=C(N)N1c1cccc(COc2cccc3ccccc23)c1` has a Ki [4] of 0.135 µM, a Selectivity index [2] of 1.38 and a Ki [1] of 0.00537 µM.

In the case of `CC1(C)N=C(N)N=C(N)N1c1cccc(SCc2ccc(Cl)cc2)c1`, the Ki [1] is reported as 0.00263 µM.

For `CC1(C)N=C(N)N=C(N)N1c1cccc(COc2cccc(-c3ccccc3)c2)c1`, the Ki [1] was 0.00447 µM.

In the case of `CC(=O)Nc1cccc(OCc2cccc(N3C(N)=NC(N)=NC3(C)C)c2)c1`, the Ki [1] is reported as 0.00324 µM.

`CCCCCCCc1ccc(N2C(N)=NC(N)=NC2(C)C)cc1` showed a Ki [1] of 0.00631 µM.

For `CCCCCCCCCCc1ccc(N2C(N)=NC(N)=NC2(C)C)cc1`, the Ki [1] was 0.0158 µM.

Molecule `CCCCOc1ccc(N2C(N)=NC(N)=NC2(C)C)cc1` has a Ki [1] of 0.631 µM.

Source: ChEMBL document CHEMBL1128273, “Quantitative structure-activity relationships of the inhibition of Pneumocystis carinii dihydrofolate reductase by 4,6-diamino-1,2-dihydro-2,2-dimethyl-1-(X-phenyl)-s-triazines” (J Med Chem, 1995)
